Experiments:
Test in all cases: relative viability (nuclei count vs DMSO), 5 days (fraction); higher = more cells survive
KIN001-266 + Palbociclib = compound: CCN1CCC(CC1)N2C=C(N=N2)CNC3=CC4=C(C(=CN=C4C(=C3)Cl)C#N)NC5=CC(=C(C=C5)F)Cl [KIN001-266] + CC(=O)c1c(C)c2cnc(Nc3ccc(N4CCNCC4)cn3)nc2n(C2CCCC2)c1=O [Palbociclib] (partner 0.5 µM)
How it was run: (§1)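 Nuclei were stained with Hoechst during a one-step fixation (final 0.05% Triton X-100, 1% formaldehyde, 1 ug/ml Hoechst) carried out 5 days after dosing, then counted on 4× images. The cells, lung cancer lines in 1536-well plates, had been dosed by pin tool the day after seeding with one drug alone or a fixed anchor-drug dose plus five library-drug doses (not always all listed) in √10 steps. Relative viability is the nuclei count in treated wells divided by that in vehicle wells, and each value is the median of duplicate plates.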

KIN001-266 + Dasatinib = compound: CCN1CCC(CC1)N2C=C(N=N2)CNC3=CC4=C(C(=CN=C4C(=C3)Cl)C#N)NC5=CC(=C(C=C5)F)Cl [KIN001-266] + Cc1nc(Nc2ncc(C(=O)Nc3c(C)cccc3Cl)s2)cc(N2CCN(CCO)CC2)n1 [Dasatinib] (partner 0.075 µM)
How it was run: as §1

KIN001-266 + Alpelisib = compound: CCN1CCC(CC1)N2C=C(N=N2)CNC3=CC4=C(C(=CN=C4C(=C3)Cl)C#N)NC5=CC(=C(C=C5)F)Cl [KIN001-266] + Cc1nc(NC(=O)N2CCC[C@H]2C(N)=O)sc1-c1ccnc(C(C)(C)C(F)(F)F)c1 [Alpelisib] (partner 2 µM)
How it was run: as §1

KIN001-266 + Bortezomib = compound: CCN1CCC(CC1)N2C=C(N=N2)CNC3=CC4=C(C(=CN=C4C(=C3)Cl)C#N)NC5=CC(=C(C=C5)F)Cl [KIN001-266] + CC(C)C[C@H](NC(=O)[C@H](Cc1ccccc1)NC(=O)c1cnccn1)B(O)O [Bortezomib] (partner 0.002 µM)
How it was run: as §1

| Cell Line | relative viability (KIN001-266 + Palbociclib; first compound 0.08 µM) | relative viability (KIN001-266 + Palbociclib; first compound 0.253 µM) | relative viability (KIN001-266 + Palbociclib; first compound 0.8 µM) | relative viability (KIN001-266 + Palbociclib; first compound 2.53 µM) | relative viability (KIN001-266 + Palbociclib; first compound 8 µM) | relative viability (KIN001-266 + Dasatinib; first compound 0.08 µM) | relative viability (KIN001-266 + Dasatinib; first compound 0.253 µM) | relative viability (KIN001-266 + Dasatinib; first compound 0.8 µM) | relative viability (KIN001-266 + Dasatinib; first compound 2.53 µM) | relative viability (KIN001-266 + Dasatinib; first compound 8 µM) | relative viability (KIN001-266 + Alpelisib; first compound 0.08 µM) | relative viability (KIN001-266 + Alpelisib; first compound 0.253 µM) | relative viability (KIN001-266 + Alpelisib; first compound 0.8 µM) | relative viability (KIN001-266 + Alpelisib; first compound 2.53 µM) | relative viability (KIN001-266 + Alpelisib; first compound 8 µM) | relative viability (KIN001-266 + Bortezomib; first compound 0.08 µM) | relative viability (KIN001-266 + Bortezomib; first compound 0.253 µM) | relative viability (KIN001-266 + Bortezomib; first compound 0.8 µM) | relative viability (KIN001-266 + Bortezomib; first compound 2.53 µM) | relative viability (KIN001-266 + Bortezomib; first compound 8 µM) |
| --- | --- | --- | --- | --- | --- | --- | --- | --- | --- | --- | --- | --- | --- | --- | --- | --- | --- | --- | --- | --- |
| HARA | 0.237 | 0.27 | 0.261 | 0.237 | 0.18 | 0.26 | 0.256 | 0.231 | 0.264 | 0.281 | 0.771 | 0.77 | 0.835 | 0.847 | 0.59 | 1.07 | 1.09 | 1.16 | 1.07 | 1.04 |
| NCI-H1792 | 0.675 | 0.719 | 0.637 | 0.681 | 0.638 | 0.771 | 0.787 | 0.753 | 0.762 | 0.906 | 0.715 | 0.752 | 0.695 | 0.8 | 0.669 | 0.962 | 0.927 | 0.879 | 0.917 | 0.948 |
| CAL-12T | 0.44 | 0.492 | 0.438 | 0.359 | 0.419 | 0.444 | 0.49 | 0.345 | 0.52 | 0.278 | 1.43 | 1.39 | 1.11 | 1.3 | 1.02 | 1.04 | 0.976 | – | 1.12 | 0.97 |
| NCI-H727 | 0.683 | 0.617 | 0.642 | 0.671 | 0.729 | 0.473 | 0.468 | 0.323 | 0.342 | 0.261 | 0.585 | 0.567 | 0.622 | 0.597 | 0.329 | 0.843 | 0.893 | 0.889 | 0.864 | 0.514 |
| NCI-H2085 | 0.478 | 0.494 | 0.504 | 0.461 | 0.38 | 0.221 | 0.234 | 0.241 | 0.239 | 0.244 | 0.941 | 0.983 | 0.959 | 1 | 0.795 | 1.01 | 1.04 | 0.888 | 1.14 | 0.916 |
| NCI-H460 | 0.175 | 0.161 | 0.263 | 0.176 | 0.153 | 0.659 | 0.513 | 0.531 | 0.45 | 0.496 | 0.609 | 0.581 | 0.484 | 0.485 | 0.413 | 1.01 | 1.18 | 1.16 | 0.988 | 1.06 |
| EKVX | 0.402 | 0.406 | 0.403 | 0.391 | 0.367 | 0.468 | 0.519 | 0.549 | 0.533 | 0.406 | 0.871 | 0.817 | 0.83 | 0.807 | 0.877 | 1.12 | 1 | 1.01 | 1.06 | 1.01 |
| NCI-H1755 | 0.43 | 0.447 | 0.432 | 0.443 | 0.413 | 0.415 | 0.387 | 0.471 | 0.478 | 0.451 | 1 | 0.895 | 0.95 | 0.843 | 0.816 | 0.956 | 0.972 | 0.847 | 0.918 | 0.884 |
| NCI-H2228 | 0.836 | 0.797 | 0.936 | 0.763 | 0.664 | 0.544 | 0.538 | 0.511 | 0.434 | 0.451 | 0.757 | 0.95 | 0.771 | 0.549 | 0.622 | 1.03 | 0.935 | 1.09 | 1.33 | 0.796 |
| NCI-H2087 | 0.241 | 0.308 | 0.267 | 0.26 | 0.242 | 0.914 | 0.887 | 0.866 | 0.87 | 0.472 | 1.06 | 1.02 | 1.04 | 1.06 | 0.758 | 0.761 | 0.87 | 0.717 | 0.719 | 0.609 |
| LU99A | 0.441 | 0.413 | 0.358 | 0.373 | 0.364 | 0.726 | 0.514 | 0.505 | 0.428 | 0.425 | 0.66 | 0.606 | 0.442 | 0.438 | 0.442 | 1.31 | 1.17 | 1.11 | 1.02 | 0.982 |
| NCI-H1355 | 0.41 | 0.381 | 0.438 | 0.415 | 0.387 | 0.734 | 0.7 | 0.663 | 0.691 | 0.662 | 0.854 | 0.783 | 0.912 | 0.737 | 0.764 | 1.23 | 1.23 | 1.1 | 1.26 | 1.18 |
| NCI-H520 | 0.23 | 0.236 | 0.243 | 0.165 | 0.237 | 0.209 | 0.208 | 0.187 | 0.168 | 0.194 | 0.817 | 0.929 | 1.08 | 0.646 | 0.801 | 0.633 | 0.677 | 0.535 | 0.544 | 0.675 |
| NCI-H661 | 0.424 | 0.413 | 0.403 | 0.372 | 0.349 | 0.897 | 1.01 | 0.847 | 0.894 | 0.657 | 0.95 | 0.753 | 0.721 | 0.557 | 0.591 | 0.784 | 0.755 | 0.878 | 0.837 | 0.566 |
| NCI-H650 | 0.375 | 0.361 | 0.357 | 0.363 | 0.413 | 0.609 | 0.531 | 0.455 | 0.451 | 0.517 | 1.12 | 1.08 | 1.33 | 1.09 | 1.14 | 0.997 | 0.844 | 0.997 | 0.771 | 0.768 |
| NCI-H647 | 0.432 | 0.399 | 0.428 | 0.479 | 0.351 | 0.249 | 0.268 | 0.181 | 0.152 | 0.15 | 1.29 | 1.3 | 1.11 | 1.11 | 0.928 | 1 | 1.03 | 1.14 | 1.07 | 0.935 |
